Data from patent US20070249561A1, “Pharmacological method for treatment of neuropathic pain” (priority 2006, published 2007).
Values belong to the molecule of their own block, whether it stands above or below them.

Assays:
[1] = tested on: spared nerve injury (SNI) model of neuropathic pain in rats; assay: Mechanical threshold (von Frey) to hindpaw withdrawal in spared nerve injury (SNI) rats; format: in vivo, rat; details: for effect of agonist alone on latency to hindpaw withdrawal (mechanical): 100 μg intrathecal; for effect on behavioral signs of neuropathic pain (mechanical threshold / latency to hindpaw withdrawal): dose series
Text: (§1) Male Sprague-Dawley rats (Charles Rivers Laboratories, Inc) were used, and weighed 280-320 g at the time of surgery and intrathecal catheter implantation, and 340-380 g during pharmacological testing. Animals were housed in individual cages on a 12-hour light/dark cycle starting at 6 a.m., and were given food and water […]. All animal use protocols were approved by the Institutional Animal Care and Use Committee (IACUC) of Tulane University.
(§2) Neuropathic pain was modeled in rats using the spared nerve injury model (“SNI”), which is widely accepted as a model for neuropathic pain. To produce the model, rats were anesthetized with isoflurane (5% induction, then 1.5% maintenance in oxygen). As previously described, an incision was made in the skin at the level of the trifurcation of the left sciatic nerve (Decosterd et al., 2000). The overlying muscles were retracted, exposing the common peroneal, tibial, and sural nerves. The common peroneal and tibial nerves were ligated with 6-0 silk (Ethicon, Somerville, N.J.), and then the knot and adjacent nerve (2 mm) were transected. Care was taken to avoid touching the sural nerve branch. The muscle was then sutured with 4-0 absorbable sutures (Ethicon) and the wound was closed with metal clips.
(§3) At the time of nerve injury, animals were re-anesthetized with isoflurane (Baxter, Deerfield, Ill.), and then placed in a stereotaxic apparatus (Stoelting, Wood Dale, Ill.). As previously described (Malkmus et al., 2004), rats were implanted with polyethylene-10 (PE-10, Clay Adams, Sparks, Md.) intrathecal catheters. Briefly, the animal's head was flexed forward in the stereotaxic apparatus, an incision was made in the skin at the back of the head and neck, and the cisternal membrane was exposed by sharp dissection. The membrane was gently punctured with the tip of a #15 scalpel blade, and the distal end of a 7.5 cm long PE-10 catheter was passed through the opening in the cisternal membrane, into the intrathecal space. The catheter was loosely sutured to subcutaneous tissue, leaving the proximal end external to the animal and accessible to the experimenter, and the skin was then approximated using 4-0 absorbable sutures (Ethicon).
(§4) Following surgery, rats were allowed 7 days to recover prior to drug administration and experimentation. To minimize any effects of animal handling on experimental data, drugs and vehicle (saline, or saline and DMSO) were administered via remote injection. PE-10 tubing, filled with vehicle or drug, was used to connect a Hamilton microsyringe to a 30-gauge microinjector, through which 15-20 μL of vehicle or drug was delivered to the lumbar region of the spinal cord via the intrathecal catheter. Progress of the injection was visually confirmed by observing the movement of a small air bubble within the PE-10 tubing. Injectors were left in place an additional minute after fluid delivery, to minimize backflow within the catheter, and animals were then returned to the testing box.
(§5) All drug solutions were freshly prepared daily. After evaporating methyl acetate solvent under a gentle nitrogen stream, 15-deoxy-Δ^12,14 PGJ2 was reconstituted in isotonic saline (comprising 0.9% sodium chloride in water, also called “normal saline”). Rosiglitazone was diluted to the concentrations indicated in the FIGS. with a solution of 30% dimethylsulfoxide (DMSO) and 70% isotonic saline. 15-deoxy-Δ^12,14 PGJ2, rosiglitazone, BADGE, and DMSO were all obtained from Cayman Chemicals (Ann Arbor, Mich.). As used herein, the term “vehicle” refers to the solvent used to dilute the drugs, and may comprise without limitation, DMSO, saline, and water.
(§6) Data are presented as mean±standard error of the mean (SEM). Differences between means were analyzed by two-way repeated-measures analysis of variance (ANOVA), with drug treatment as the between-subjects variable and time as the repeated measure. […]

[2] = tested on: spared nerve injury (SNI) model of neuropathic pain in rats; assay: Cold allodynia (acetone drop, paw withdrawal duration) in SNI rats; format: in vivo, rat
Text: as §1, §2, §3, §4, §5, §6

[3] = tested on: spared nerve injury (SNI) model of neuropathic pain in mice; assay: Mechanical threshold (von Frey) to hindpaw withdrawal in SNI mice; format: in vivo, mouse; details: intrathecal
Experimental: (§7) Male CD1 mice (Charles Rivers Laboratories, Inc) were used, and weighed 18-22 g at the time of surgery, and 29-32 g during pharmacological testing. To produce the SNI model in mice, surgical procedures essentially identical to those used in rat were used. Unlike the rat SNI model, where an indwelling catheter was inserted surgically, vehicle or drugs were injected directly into the intrathecal space of the unanesthetized mouse using the classical method of Hylden and Wilcox (“Intrathecal morphine in mice: a new technique” Eur. J. Pharmacol. 17:313-6, 1980) to administer drugs to the intrathecal space dorsal to but not within the spinal cord. Briefly, a piece of cloth was used to restrain the mouse by cradling the iliac crest between one's thumb and forefinger. The L5-L6 spinal bones were located, and a 0.5 inch 30G hypodermic needle was inserted perpendicularly into the L4-L5 interspinous space. Upon insertion, the needle was angled about 30°-45° from the coronal (frontal) plane, and then advanced slightly. The needle angle was then adjusted gently, until paw or tail movement was evoked, whereupon the needle was held in position and 5 μL of saline or drug was administered via a 25 μL Hamilton syringe.
(§8) Data are presented as mean±standard error of the mean (SEM). Differences between means were analyzed by two-way repeated-measures analysis of variance (ANOVA), with drug treatment as the between-subjects variable and time as the repeated measure. If statistically significant differences (p<0.05) were detected, the analyses were followed by post hoc t-tests.
(§9) The procedures used to evaluate behavioral signs of mechanical and cold allodynia were essentially the same for rats as they were for mice. Animals were acclimated to a stainless steel grid within individual Plexiglas boxes for 30-60 minutes, and then tested for mechanical allodynia and cold allodynia. In all animals, mechanical allodynia was assessed using von Frey (VF) filaments (Stoelting, Inc), and was done before assessing cold allodynia.
To assess mechanical allodynia, the plantar region of each hind paw was stimulated with an incremental series of 8 different VF hairs (monofilaments of logarithmically varying stiffness). In SNI rats and mice, the stimulus region was localized to the sural innervation territory of the lateral aspect of the plantar hind paw. The 50% withdrawal threshold (“mechanical” threshold) was determined using the up-down method of Dixon, modified by Chaplan et al. (Chaplan et al., 1994). First, an intermediate von Frey monofilament (e.g., for rats, number 4.31 was used, which exerts a force of 2.0 g) was applied perpendicular to the plantar skin, causing a slight bending of the hair. […]

[4] = tested on: spared nerve injury (SNI) model of neuropathic pain in mice; assay: Cold allodynia (acetone drop, paw withdrawal duration) in SNI mice; format: in vivo, mouse; details: intrathecal
Experimental: as §7, §8, §9
Cold allodynia was evaluated by applying a drop of acetone to the plantar paw of control and SNI rats. Acetone was applied via a syringe connected to PE-90 tubing, flared at the tip to a diameter of 3.5 mm. Surface tension maintained the volume of the drop to 10-12 μL. The length of time the animal lifted or shook its paw was recorded. The duration of paw withdrawal was recorded for 30 seconds, and three observations were averaged. […] In such cases acetone testing was either terminated, or that data was not included in the final analysis.

[5] = Heneka et al. 2005; Maeshiba et al. 1997; cited from earlier work
[6] = tested on: animals subjected to sham SNI surgery; assay: Sensory thresholds (mechanical, cold, infrared heat) in rats subjected to sham SNI surgery; format: in vivo, rat; details: p>0.05
Experimental: as §9
To assess mechanical allodynia, the plantar region of each hind paw was stimulated with an incremental series of 8 different VF hairs (monofilaments of logarithmically varying stiffness). In SNI rats and mice, the stimulus region was localized to the sural innervation territory of the lateral aspect of the plantar hind paw. The 50% withdrawal threshold (“mechanical” threshold) was determined using the up-down method of Dixon, modified by Chaplan et al. (Chaplan et al., 1994). First, an intermediate von Frey monofilament (e.g., for rats, number 4.31 was used, which exerts a force of 2.0 g) was applied perpendicular to the plantar skin, causing a slight bending of the hair. In the event of a positive response (defined as rapid withdrawal of the paw within 6 seconds), a smaller filament was tested. In the event of a negative response, a larger filament was tested. The mechanical threshold is the smallest amount of force required to evoke a positive response. […] In such cases von Frey testing was either terminated, or that data was not included in the final analysis.
Cold allodynia was evaluated by applying a drop of acetone to the plantar paw of control and SNI rats. Acetone was applied via a syringe connected to PE-90 tubing, flared at the tip to a diameter of 3.5 mm. Surface tension maintained the volume of the drop to 10-12 μL. The length of time the animal lifted or shook its paw was recorded. The duration of paw withdrawal was recorded for 30 seconds, and three observations were averaged. […]
(§10) To assess more subtle behavioral effects, we evaluated the effects of rosiglitazone on motor coordination and sensory thresholds in uninjured rats.

[7] = tested on: animals subjected to sham SNI surgery; assay: Accelerating rotarod test of motor coordination in sham SNI rats; format: in vivo, rat
Experimental: To evaluate the effect of PPARγ agonists on proprioceptive function, rats were placed on an accelerating rotarod (Stoelting, Wood Dale, III). The rotating rod was subdivided into four compartments for the simultaneous assessment of four animals. Initially rotating at a rate of 4 rpm, the system was adjusted gradually over 10 minutes to a maximum speed of 40 rpm. The time that a rat remained on the rotating rod without falling off was recorded—the rotarod duration. After sham SNI surgery and one day before testing, animals were acclimated to the rotarod for 5-10 trials, yielding average latencies of approximately 3 minutes. On the day of testing, rotarod duration was measured three times prior to drug or vehicle administration, and the times averaged. After drug administration, rotarod duration was measured in triplicate at 60 and 120 minutes from the time of administration, with durations averaged for each time point.
as §10

SNI rats = details: rat, in vivo

Compound: CC(C)(c1ccc(OCC2CO2)cc1)c1ccc(OCC2CO2)cc1 (stereo not shown) [BADGE, bisphenol A diglycidyl ether]
effect of antagonist administered alone on hindpaw withdrawal latency ([1]; administered alone, SNI rats): did not have a significant effect on hindpaw withdrawal latency
ED50, log dose-response curve, block of 15-deoxy-Δ^12,14 PGJ2-induced elevation of mechanical threshold ([1]; intrathecal co-administration with 100 μg 15-deoxy-Δ^12,14 PGJ2, 60 minutes after injection, SNI rats): 11.44 μg
effect of co-administered antagonist on analgesic effects of 15-deoxy-Δ^12,14 PGJ2 (mechanical threshold) ([1]; intrathecal co-administration with 100 μg 15-deoxy-Δ^12,14 PGJ2, SNI rats): eliminated the analgesic effects of 15-deoxy-Δ^12,14 PGJ2
effect of co-administered antagonist on rosiglitazone analgesia (mechanical hypersensitivity) ([1]; intrathecal co-administration with 100 μg rosiglitazone, SNI rats): eliminated the analgesic effects of 100 μg rosiglitazone on mechanical hypersensitivity in a dose-dependent manner
effect of co-administered antagonist on rosiglitazone analgesia (cold hypersensitivity) ([2]; intrathecal co-administration with 100 μg rosiglitazone): dose-dependently eliminated the analgesic effects of rosiglitazone

Compound: CCc1ccc(CCOc2ccc(CC3SC(=O)NC3=O)cc2)nc1 (stereo not shown) [pioglitazone, 5-[[4-[2-(5-ethylpyridin-2-yl)ethoxy]phenyl]methyl]thiazolidine-2,4-dione]
onset of anti-allodynic effect after injection (mechanical threshold) ([3]; 150 μg dose): ≤ 30 min
time after which anti-allodynic effect dissipated (mechanical threshold) ([3]; 150 μg dose): 90 min
time of peak anti-allodynic effect after injection (mechanical threshold) ([3]; 150 μg dose): 30 min
effect on behavioral signs of neuropathic pain (threshold to hindpaw withdrawal, von Frey) ([3]; dose series): reduced behavioral signs of neuropathic pain in a dose-dependent and reversible manner
onset of analgesic effects after injection (cold allodynia) [4]: ≤ 30 min
time of most pronounced analgesic effects (cold allodynia) [4]: approximately 60 minutes
time within which analgesic effects began to dissipate (cold allodynia) [4]: ≤ 90 min
effect on cold hypersensitivity (paw withdrawal duration after acetone) ([4]; dose series): decreased cold hypersensitivity in a dose-dependent and reversible manner
ability to cross the blood brain barrier [5]: can cross the blood brain barrier

effect on cold response [6]: does not affect
effect on latency to paw withdrawal response to an infrared heat (IR) stimulus [6]: does not affect
effect on mechanical threshold [6]: does not affect
Compound: CN(CCOc1ccc(CC2SC(=O)NC2=O)cc1)c1ccccn1 (stereo not shown) [rosiglitazone, 5-[[4-[2-(methyl-pyridin-2-yl-amino)ethoxy]phenyl]methyl]thiazolidine-2,4-dione]
effect of agonist alone on latency to hindpaw withdrawal (mechanical) ([1]; SNI rats): reduced behavioral signs of neuropathic pain in a reversible manner
dissipation of analgesic effect (mechanical threshold) ([1]; intrathecal, SNI rats): dissipated after four hours
onset of analgesic effect after injection (mechanical threshold) ([1]; intrathecal, SNI rats): ≤ 30 min
time of peak analgesic effect after injection (mechanical threshold) ([1]; intrathecal, SNI rats): about 90 minutes
effect on behavioral signs of neuropathic pain (mechanical threshold / latency to hindpaw withdrawal) ([1]; intrathecal, SNI rats): reduced behavioral signs of neuropathic pain in a dose-dependent and reversible manner
effect of agonist alone on cold hypersensitivity ([2]; 100 μg intrathecal): decreased cold hypersensitivity in a reversible manner
dissipation of analgesic effects (cold allodynia) ([2]; intrathecal): dissipated after four hours
onset of analgesic effects after injection (cold allodynia) ([2]; intrathecal): ≤ 30 min
time of most pronounced analgesic effects (cold allodynia) ([2]; intrathecal): approximately 90 minutes
effect on cold hypersensitivity (paw withdrawal duration after acetone) ([2]; intrathecal, dose series): decreased cold hypersensitivity in a dose-dependent and reversible manner
effect on motor coordination (rotarod), supra-maximal dose ([7]; 1000 μg): reduced motor coordination, but this effect was small, not statistically significant
effect on motor coordination (rotarod) ([7]; p>0.05): does not affect
gross behavioral changes or other obvious deleterious effects (SNI rats): neither 15-deoxy-Δ^12,14 PGJ2 nor rosiglitazone produced gross behavioral changes or other obvious deleterious effects

Compound: CCCCC/C=C/C=C1/C(=O)C=C[C@@H]1CC=CCCCC(=O)O (stereo in doubt) [15-deoxy-Δ^12,14 PGJ2, (Z)-7-[(1S,5E)-5-[(E)-oct-2-enylidene]-4-oxo-1-cyclopent-2-enyl]hept-5-enoic acid]
effect of agonist alone on latency to hindpaw withdrawal (mechanical) ([1]; SNI rats): increased latency to hindpaw withdrawal
dissipation of analgesic effect (mechanical threshold) ([1]; intrathecal, SNI rats): dissipated after four hours
onset of analgesic effect after injection (mechanical threshold) ([1]; intrathecal, SNI rats): ≤ 30 min
time of peak analgesic effect after injection (mechanical threshold) ([1]; intrathecal, SNI rats): about 60 minutes
ED50, log dose-response curve, mechanical threshold (hindpaw withdrawal) ([1]; intrathecal, SNI rats, 60 minutes after injection): 73.97 μg
effect on behavioral signs of neuropathic pain (mechanical threshold / latency to hindpaw withdrawal) ([1]; intrathecal, SNI rats): reduced behavioral signs of neuropathic pain
gross behavioral changes or other obvious deleterious effects (SNI rats): neither 15-deoxy-Δ^12,14 PGJ2 nor rosiglitazone produced gross behavioral changes or other obvious deleterious effects
